Source: patent US10420341B2, “Herbicidal phenylpyrimidines” (BASF SE, priority 2015, dated 2019)

Key:
[1] = test system: APESV; assay: greenhouse pre-emergence herbicidal test; format: in vivo, Apera spica-venti; conditions: pre-emergence method, scale from 0 to 100
Description: (§1) The seeds of the test plants were sown separately for each species. For the pre-emergence treatment, the active ingredients, which had been suspended or emulsified in water, were applied directly after sowing by means of finely distributing nozzles. The containers were irrigated gently to promote germination and growth and subsequently covered with transparent plastic hoods until the plants had rooted. This cover caused uniform germination of the test plants, unless this had been impaired by the active ingredients. Depending on the species, the plants were kept at 10-25° C. or 20-35° C., respectively. The test period extended over 2 to 4 weeks. During this time, the plants were tended, and their response to the individual treatments was evaluated. Evaluation was carried out using a scale from 0 to 100. 100 means no emergence of the plants, or complete destruction of at least the aerial moieties, and 0 means no damage, or normal course of growth. […] The plants used in the greenhouse experiments were of the following species: [table]

[2] = test system: ECHCG; assay: greenhouse pre-emergence herbicidal test; format: in vivo, Echinocloa crus-galli; conditions: pre-emergence method, scale from 0 to 100
Description: as §1

[3] = test system: ALOMY; assay: greenhouse post-emergence herbicidal test; format: in vivo, Alopercurus myosuroides; conditions: post-emergence method, scale from 0 to 100
Description: (§2) The seeds of the test plants were sown separately for each species. For the post-emergence treatment, the test plants were first grown to a height of 3 to 15 cm, depending on the plant habit, and only then treated with the active ingredients which had been suspended or emulsified in water. For this purpose, the test plants were either sown directly and grown in the same containers, or they were first grown separately as seedlings and transplanted into the test containers a few days prior to treatment. Depending on the species, the plants were kept at 10-25° C. or 20-35° C., respectively. The test period extended over 2 to 4 weeks. During this time, the plants were tended, and their response to the individual treatments was evaluated. Evaluation was carried out using a scale from 0 to 100. 100 means no emergence of the plants, or complete destruction of at least the aerial moieties, and 0 means no damage, or normal course of growth. […] The plants used in the greenhouse experiments were of the following species: [table]

[4] = test system: ECHCG; assay: greenhouse post-emergence herbicidal test; format: in vivo, Echinocloa crus-galli; conditions: post-emergence method, scale from 0 to 100
Description: as §2

Compound	herbicidal activity against APESV ([1]; application rate 1000 g/ha)	herbicidal activity against ECHCG ([2]; application rate 1000 g/ha)	herbicidal activity against ECHCG ([4]; application rate 1000 g/ha)	also measured
COc1cc(F)ccc1-c1cnc(C2CC2)nc1C(=O)O [example 301]	good (A good herbicidal activity is given at values of at least 70)	very good (a very good herbicidal activity is given at values of at least 85)	–	–
COC(=O)c1nc(C2CC2)ncc1-c1c(Cl)cccc1OC [example 202]	good (A good herbicidal activity is given at values of at least 70)	very good (a very good herbicidal activity is given at values of at least 85)	good (A good herbicidal activity is given at values of at least 70)	herbicidal activity against ALOMY ([3]; application rate 1000 g/ha): very good (a very good herbicidal activity is given at values of at least 85)
CCc1ncc(-c2cc(C)ccc2Cl)c(C(=O)O)n1 [example 7]	very good (a very good herbicidal activity is given at values of at least 85)	very good (a very good herbicidal activity is given at values of at least 85)	–	–
CCc1ncc(-c2ccccc2Cl)c(C(=O)OC)n1 [example 19]	very good (a very good herbicidal activity is given at values of at least 85)	very good (a very good herbicidal activity is given at values of at least 85)	–	–
CC(C)c1ccccc1-c1cnc(C2CC2)nc1C(=O)O [example 175]	very good (a very good herbicidal activity is given at values of at least 85)	very good (a very good herbicidal activity is given at values of at least 85)	–	–
COC(=O)c1nc(C2CC2)ncc1-c1ccc(OC)cc1Cl [example 294]	–	–	good (A good herbicidal activity is given at values of at least 70)	–
CCc1ncc(-c2cc(C)ccc2C)c(C(=O)OC)n1 [example 23]	very good (a very good herbicidal activity is given at values of at least 85)	very good (a very good herbicidal activity is given at values of at least 85)	–	–
Cc1c(F)cccc1-c1cnc(C2CC2)nc1C(=O)O [example 170]	very good (a very good herbicidal activity is given at values of at least 85)	very good (a very good herbicidal activity is given at values of at least 85)	good (A good herbicidal activity is given at values of at least 70)	herbicidal activity against ALOMY ([3]; application rate 1000 g/ha): very good (a very good herbicidal activity is given at values of at least 85)
COc1ccc(Br)c(-c2cnc(C3CC3)nc2C(=O)O)c1 [example 153]	very good (a very good herbicidal activity is given at values of at least 85)	–	very good (a very good herbicidal activity is given at values of at least 85)	–
COc1ccc(F)c(-c2cnc(SC)nc2C(=O)O)c1 [example 83]	–	–	–	herbicidal activity against ECHCG ([4]; application rate 2000 g/ha): good (A good herbicidal activity is given at values of at least 70)
COc1ncc(-c2ccc(C)cc2C)c(C(=O)O)n1 [example 57]	very good (a very good herbicidal activity is given at values of at least 85)	very good (a very good herbicidal activity is given at values of at least 85)	–	–
O=C(O)c1nc(C2CC2)ncc1-c1ccccc1C1CC1 [example 187]	very good (a very good herbicidal activity is given at values of at least 85)	very good (a very good herbicidal activity is given at values of at least 85)	very good (a very good herbicidal activity is given at values of at least 85)	–
COc1ncc(-c2ccccc2C)c(C(=O)O)n1 [example 52]	–	–	–	herbicidal activity against APESV ([1]; application rate 2000 g/ha): very good (a very good herbicidal activity is given at values of at least 85); herbicidal activity against ALOMY ([3]; application rate 2000 g/ha): good (A good herbicidal activity is given at values of at least 70); herbicidal activity against ECHCG ([2]; application rate 2000 g/ha): good (A good herbicidal activity is given at values of at least 70)
COC(=O)c1nc(C(C)C)ncc1-c1cc(C)ccc1C [example 38]	good (A good herbicidal activity is given at values of at least 70)	very good (a very good herbicidal activity is given at values of at least 85)	–	–
N#Cc1ccccc1-c1cnc(C2CC2)nc1C(=O)O [example 154]	–	–	–	herbicidal activity against APESV ([1]; application rate 500 g/ha): very good (a very good herbicidal activity is given at values of at least 85); herbicidal activity against ALOMY ([3]; application rate 500 g/ha): very good (a very good herbicidal activity is given at values of at least 85); herbicidal activity against ECHCG ([2]; application rate 500 g/ha): very good (a very good herbicidal activity is given at values of at least 85); herbicidal activity against ECHCG ([4]; application rate 500 g/ha): good (A good herbicidal activity is given at values of at least 70)
C=Cc1ccccc1-c1cnc(C2CC2)nc1C(=O)O [example 183]	–	–	–	herbicidal activity against APESV ([1]; application rate 500 g/ha): very good (a very good herbicidal activity is given at values of at least 85); herbicidal activity against ECHCG ([2]; application rate 500 g/ha): very good (a very good herbicidal activity is given at values of at least 85)
O=C(O)c1nc(C2CC2)ncc1-c1cc(Br)ccc1F [example 135]	very good (a very good herbicidal activity is given at values of at least 85)	–	–	herbicidal activity against ALOMY ([3]; application rate 1000 g/ha): herbicidal activity
CCc1ncc(-c2cc(C)ccc2Cl)c(C(=O)OC)n1 [example 20]	very good (a very good herbicidal activity is given at values of at least 85)	very good (a very good herbicidal activity is given at values of at least 85)	good (A good herbicidal activity is given at values of at least 70)	–
COc1ccc(OC)c(-c2cnc(C3CC3)nc2C(=O)O)c1 [example 179]	–	–	–	herbicidal activity against APESV ([1]; application rate 2000 g/ha): very good (a very good herbicidal activity is given at values of at least 85); herbicidal activity against ECHCG ([4]; application rate 2000 g/ha): very good (a very good herbicidal activity is given at values of at least 85)
COc1ccc(-c2cnc(C3CC3)nc2C(=O)O)c(F)c1 [example 297]	very good (a very good herbicidal activity is given at values of at least 85)	–	–	–
CCc1ncc(-c2cc(Cl)ccc2C)c(C(=O)OC)n1 [example 22]	good (A good herbicidal activity is given at values of at least 70)	good (A good herbicidal activity is given at values of at least 70)	–	–
COC(=O)c1nc(OC)ncc1-c1cc(F)ccc1C [example 62]	very good (a very good herbicidal activity is given at values of at least 85)	good (A good herbicidal activity is given at values of at least 70)	–	–
COCOc1ccccc1-c1cnc(C2CC2)nc1C(=O)O [example 180]	very good (a very good herbicidal activity is given at values of at least 85)	very good (a very good herbicidal activity is given at values of at least 85)	very good (a very good herbicidal activity is given at values of at least 85)	–
COC(=O)c1nc(C2CC2)ncc1-c1cc(C)ccc1C [example 228]	–	–	–	herbicidal activity against APESV ([1]; application rate 2000 g/ha): very good (a very good herbicidal activity is given at values of at least 85); herbicidal activity against ALOMY ([3]; application rate 2000 g/ha): very good (a very good herbicidal activity is given at values of at least 85); herbicidal activity against ECHCG ([4]; application rate 2000 g/ha): very good (a very good herbicidal activity is given at values of at least 85)
COc1ccccc1-c1cnc(C2CC2)nc1C(=O)O [example 177]	very good (a very good herbicidal activity is given at values of at least 85)	very good (a very good herbicidal activity is given at values of at least 85)	good (A good herbicidal activity is given at values of at least 70)	–
COc1ccc(-c2cnc(SC)nc2C(=O)O)c(C)c1 [example 100]	–	–	–	herbicidal activity against ECHCG ([4]; application rate 2000 g/ha): good (A good herbicidal activity is given at values of at least 70)
COc1ccc(-c2cnc(C3CC3)nc2C(=O)O)c(Cl)c1 [example 296]	very good (a very good herbicidal activity is given at values of at least 85)	–	–	–
CCc1ncc(-c2cc(F)ccc2C)c(C(=O)O)n1 [example 10]	–	–	–	herbicidal activity against APESV ([1]; application rate 500 g/ha): very good (a very good herbicidal activity is given at values of at least 85); herbicidal activity against ECHCG ([2]; application rate 500 g/ha): very good (a very good herbicidal activity is given at values of at least 85)
O=C(O)c1nc(C2CC2)ncc1-c1ccccc1[N+](=O)[O-] [example 160]	very good (a very good herbicidal activity is given at values of at least 85)	very good (a very good herbicidal activity is given at values of at least 85)	very good (a very good herbicidal activity is given at values of at least 85)	–
